Measurements from patent publication US8222416B2, “Azaindole glucokinase activators” (Hoffmann-La Roche Inc., priority 2009, dated 2012).

These compounds were tested against T1, Recombinant human liver GK1 (GST-GK) (Homo sapiens, UniProt P35557) (assay: In vitro glucokinase activity assay (G6PDH-coupled, NADH, OD340)). Conditions: at 30 μM.
T1 construct: made in house; host or cells: E. coli
T1 sequence (P35557 1-466 isoform P35557-2): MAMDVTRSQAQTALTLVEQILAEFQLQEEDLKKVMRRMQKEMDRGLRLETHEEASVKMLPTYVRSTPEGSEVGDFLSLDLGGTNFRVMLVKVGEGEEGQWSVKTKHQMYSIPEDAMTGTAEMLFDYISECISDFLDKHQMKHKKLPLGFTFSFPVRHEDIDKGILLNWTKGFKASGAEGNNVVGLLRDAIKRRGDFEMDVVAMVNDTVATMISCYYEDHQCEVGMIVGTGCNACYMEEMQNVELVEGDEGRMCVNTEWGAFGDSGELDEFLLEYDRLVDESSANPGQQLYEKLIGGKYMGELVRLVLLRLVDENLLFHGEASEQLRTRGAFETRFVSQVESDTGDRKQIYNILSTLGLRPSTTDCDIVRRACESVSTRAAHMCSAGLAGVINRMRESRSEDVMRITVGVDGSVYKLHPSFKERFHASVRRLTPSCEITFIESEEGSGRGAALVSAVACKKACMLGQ
Format: biochemical
Summary of the method: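 GST-fused human liver GK1 from E. coli, run at 30° C. in pH 7.1 HEPES with 5 mM glucose, 1 mM ATP and 10% DMSO, coupled via G6PDH to NADH. OD340 rate measured after enzyme start; SC1.5 is the activator concentration raising activity 50% over DMSO control.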

fold activation of GK [fold at 30]	Structure (SMILES)
1.4	CCC(O)(CC)c1ccc(C(CC2CCCC2)c2cc3cccnc3[nH]2)cc1 (stereo not shown) [Example 83, 3-{4-[2-Cyclopentyl-1-(1H-pyrrolo[2,3-b]pyridin-2-yl)-ethyl]-phenyl}-pentan-3-ol]

Same assay, conditions: concentration of activator that produced a 50% increase in the activity of GK; 5 mM D-glucose, 30° C.

Structure (SMILES)	SC1.5 [µM]
CS(=O)(=O)c1ccc([C@@H](CC2CCCC2)c2cc3cc(C#N)cnc3[nH]2)cc1 (single isomer, unassigned) [Example 53]	0.144
CS(=O)(=O)c1ccc(C(CC2CCOCC2)c2cc3cc(F)cnc3[nH]2)cc1 (stereo not shown) [Example 123, 5-Fluoro-2-[1-(4-methanesulfonyl-phenyl)-2-(tetrahydro-pyran-4-yl)-ethyl]-1H-pyrrolo[2,3-b]pyridine]	0.47
CC(C)CC(c1cccc(F)c1)c1cc2cccnc2[nH]1 (stereo not shown) [Example 132, 2-(1-(3-Fluoro-phenyl)-3-methyl-butyl)-1H-pyrrolo[2,3-b]pyridine]	10.9
CS(=O)(=O)c1ccc(C(CC2CCCC2)c2cc3cc(CCCO)cnc3[nH]2)cc1 (stereo not shown) [Example 45, 3-{2-[2-Cyclopentyl-1-(4-methanesulfonyl-phenyl)-ethyl]-1H-pyrrolo[2,3-b]pyridin-5-yl}-propan-1-ol]	14.9
CS(=O)(=O)c1ccc(C(CC2CCCC2)c2cc3cc(CO)cnc3[nH]2)cc1 (stereo not shown) [Example 8, {2-[2-Cyclopentyl-1-(4-methanesulfonyl-phenyl)-ethyl]-1H-pyrrolo[2,3-b]pyridin-5-yl}-methanol]	3.4
CC(C)(CO)Oc1cnc2[nH]c([C@H](CC3CCCC3)c3ccc(S(C)(=O)=O)cc3)cc2c1 (single isomer, unassigned) [Example 29]	1.1
CS(=O)(=O)c1ccc(/C(=C\C2CCCO2)c2cc3cccnc3[nH]2)cc1 (stereo not shown) [Example 70, (E)-2-[1-(4-Methanesulfonyl-phenyl)-2-(tetrahydro-furan-2-yl)-vinyl]-1H-pyrrolo[2,3-b]pyridine]	0.082
CC(=O)c1ccc(C(CC2CCCC2)c2cc3cccnc3[nH]2)cc1 (stereo not shown) [Example 80, 1-{4-[2-Cyclopentyl-1-(1H-pyrrolo[2,3-b]pyridin-2-yl)-ethyl]-phenyl}-ethanone]	2.6
Cc1cnc2[nH]c([C@H](CC3CCCC3)c3ccc(C(C)(C)O)c(F)c3)cc2c1 (single isomer, unassigned) [Example 129]	2.6
Cc1cccc(C(CC(C)C)c2cc3cccnc3[nH]2)c1 (stereo not shown) [Example 130, 2-(3-Methyl-1-m-tolyl-butyl)-1H-pyrrolo[2,3-b]pyridine]	7.8
Cc1ccc(C(CC2CCCC2)c2cc3cccnc3[nH]2)cn1 (stereo not shown) [Example 63]	3.5
COc1cnc2[nH]c(C(CC3CCCC3)c3ccc(S(C)(=O)=O)cc3)cc2c1 (stereo not shown) [Example 12, 2-[2-Cyclopentyl-1-(4-methanesulfonyl-phenyl)-ethyl]-5-methoxy-1H-pyrrolo[2,3-b]pyridine]	0.18
CC(C)(C)/C=C(\c1ccc(S(C)(=O)=O)cc1)c1cc2cccnc2[nH]1 [Example 73, 2-[(E)-1-(4-Methanesulfonyl-phenyl)-3,3-dimethyl-but-1-enyl]-1H-pyrrolo[2,3-b]pyridine]	0.653
CS(=O)(=O)c1ccc(C(CC2CCCC2)c2cc3cc(C#N)cnc3[nH]2)cc1 (stereo not shown) [Example 52, 2-[2-Cyclopentyl-1-(4-methanesulfonyl-phenyl)-ethyl]-1H-pyrrolo[2,3-b]pyridin-5-carbonitrile]	0.37
COc1cnc2[nH]c(C(CC3CCCO3)c3ccc(S(C)(=O)=O)cc3)cc2c1 (single isomer, unassigned) [Example 25, 2-[1-(4-Methanesulfonyl-phenyl)-2-(tetrahydro-furan-2-yl)-ethyl]-5-methoxy-1H-pyrrolo[2,3-b]pyridine]	22.0
CC(C)CC(c1cccc(Cl)c1)c1cc2cccnc2[nH]1 (stereo not shown) [Example 131, 2-(1-(3-Chloro-phenyl)-3-methyl-butyl)-1H-pyrrolo[2,3-b]pyridine]	9.9
CS(=O)(=O)c1ccc([C@@H](CC2CCCC2)c2cc3cc(C(F)(F)F)cnc3[nH]2)cc1 (single isomer, unassigned) [Example 127]	0.607
CC(C)CC(c1ccc(S(C)(=O)=O)cc1)c1cc2cc(F)cnc2[nH]1 (stereo not shown) [Example 99, 5-Fluoro-2-[1-(4-methanesulfonyl-phenyl)-3-methyl-butyl]-1H-pyrrolo[2,3-b]pyridine]	0.394
CN(C)CCOc1cnc2[nH]c(C(CC3CCCC3)c3ccc(S(C)(=O)=O)cc3)cc2c1 (stereo not shown) [Example 17, (2-{2-[2-Cyclopentyl-1-(4-methanesulfonyl-phenyl)-ethyl]-1H-pyrrolo[2,3-b]pyridin-5-yloxy}-ethyl)-dimethyl-amine]	3.1

Next, values leading:

SC1.5 [µM]	Structure (SMILES)
0.693	COc1cnc2[nH]c(C(CC3CCCC3)c3ccc(C(F)(F)F)cc3)cc2c1 (stereo not shown) [Example 20, 2-[2-Cyclopentyl-1-(4-trifluoromethyl-phenyl)-ethyl]-5-methoxy-1H-pyrrolo[2,3b]pyridine]
4.4	CN(C)CC(=O)OCc1cnc2[nH]c(C(CC3CCCC3)c3ccc(S(C)(=O)=O)cc3)cc2c1 (stereo not shown) [Example 37, Dimethylamino-acetic acid 2-[2-cyclopentyl-1-(4-methanesulfonyl-phenyl)-ethyl]-1H-pyrrolo[2,3-b]pyridin-5-ylmethyl-ester]
12.9	COc1cccc(C(CC(C)C)c2cc3cccnc3[nH]2)c1 (stereo not shown) [Example 134, 2-(1-(3-Methoxy-phenyl)-3-methyl-butyl)-1H-pyrrolo[2,3-b]pyridine]
5.5	CS(=O)(=O)c1ccc(C(CC2CCCC2)c2cc3cc(C(=O)NCCO)cnc3[nH]2)cn1 (stereo not shown) [Example 59, 2-[2-Cyclopentyl-1-(6-methanesulfonyl-pyridin-3-yl)-ethyl]-1H-pyrrolo[2,3-b]pyridin-5-carboxylic acid(2-hydroxy-ethyl)-amide]
0.189	CC(C)C[C@H](c1ccc(C(C)(C)O)c(F)c1)c1cc2cc(F)cnc2[nH]1 (single isomer, unassigned) [Example 106]
23.6	CC(C)C(C)(O)c1ccc(C(CC2CCCC2)c2cc3cccnc3[nH]2)cc1 (stereo not shown) [Example 85, 2-{4-[2-Cyclopentyl-1-(1H-pyrrolo[2,3-b]pyridin-2-yl)-ethyl]-phenyl}-3-methyl-butan-2-ol]
14.1	c1cncc(C(CC2CCCC2)c2cc3cccnc3[nH]2)c1 (stereo not shown) [Example 110, 2-(2-Cyclopentyl-1-pyridin-3-yl-ethyl)-1H-pyrrolo[2,3-b]pyridine]
0.451	COCCOc1cnc2[nH]c(C(CC3CCCC3)c3ccc(S(C)(=O)=O)cc3)cc2c1 (stereo not shown) [Example 15, 2-[2-Cyclopentyl-1-(4-methanesulfonyl-phenyl)-ethyl]-5-(2-methoxy-ethoxy)-1H-pyrrolo[2,3-b]pyridine]
3.4	CS(=O)(=O)c1ccc([C@@H](CC2CCCC2)c2cc3cc(C(=O)O)cnc3[nH]2)cc1 (single isomer, unassigned) [Example 56]
0.587	CS(=O)(=O)c1ccc(C(CC2CCCC2)c2cc3cccnc3[nH]2)nc1 (stereo not shown) [Example 112, 2-[2-Cyclopentyl-1-(5-methanesulfonyl-pyridin-2-yl)-ethyl]-1H-pyrrolo[2,3-b]pyridine]
9.8	CS(=O)(=O)c1ccc(C(CC2CCCC2)c2cc3cc(CC#N)cnc3[nH]2)cc1 (stereo not shown) [Example 38, {2-[2-Cyclopentyl-1-(4-methanesulfonyl-phenyl)-ethyl]-1H-pyrrolo[2,3-b]pyridin-5-yl}-acetonitrile]
